Entries after “also recorded” stand apart in the source; their conditions may differ. Structures can show the parent of a compound that is named as a salt.

One data set deals with whole blood. The experiment in a line: Hemolysis on addition to whole blood in vitro. In kind it is cell-based. The note with it: 50 μl of 5 mg/ml Arbidol added to 950 μl whole blood, 37° C., 20 minutes.
The nature of data set [1]: Bioaccessibility (pharmacokinetics) after peroral administration in rats. The format is in vivo. Further details: area (chromatogram peak), blood: unit not given here. The following applies: 25 mg/kg. As for the experimental part: 1. The content of an NF Arbidol flask was dissolved in 5 ml. (A) 2. An Arbidol solution was prepared at a concentration of 5 mg/ml (suspension in water). (B) 3. Feed was withdrawn from the animals, leaving them water only, 24 hours before the experiment, and the animals were weighed on the day of the experiment. 4. 1 ml of solution A and B was administered perorally to the rats. 5. Blood was collected at intervals of 5, 10, 15, 30, and 45 minutes into eppendorfs containing EDTA. After an eppendorf was filled, it was shaken intensively. 6. Blood treatment: 900 μl of methanol was added to 100 μl of blood and agitated intensively for 3 to 5 minutes. The mixture was centrifuged to cause sedimentation of proteins. It was then analyzed by high-performance liquid chromatography for presence of Arbidol in the samples.
The dose administered was 25 mg/kg.

For data set [2] the following is noted: cited from earlier work.
For data set [3] the following is noted: used internally; cited from earlier work.
Where [4] appears, read: 10 minutes after administration.
Where [5] appears, read: 15 minutes after administration.
[6] abbreviates: 30 minutes after administration.

Regarding `CCOC(=O)c1c(CSc2ccccc2)n(C)c2cc(Br)c(O)c(CN(C)C)c12` [Arbidol, ethyl ester of 6-bromo-5-hydroxy-1-methyl-4-dimethylaminomethyl-2-phenylthiomethylindole-3-carbonic acid hydrochloride monohydrate], the “Hemolysis if added to whole blood” value in the data set on whole blood is “causes hemolysis”. Besides, the “area (chromatogram peak), blood” value was 0/0 in data set [1] (5 minutes after administration), 1.2 in data set [1] (setting [4]), 7.69 in data set [1] (setting [5]) and 1.6 in data set [1] (setting [6]). The concentration in blood in data set [1] (5 minutes after administration) was 0/0 μg/ml; in data set [1] (setting [4]) it was 0.3 µg/mL; in data set [1] (setting [5]) it was 2.4 µg/mL; in data set [1] (setting [6]), 0.4 µg/mL. The solubility in ethanol result in data set [2] (ethanol) is “dissolved only slightly in ethanol”. For the same molecule, the solubility in water entry in data set [2] (water, hydrochloride monohydrate) is on record as “practically insoluble in water; also recorded: not soluble in water; also recorded: not dissolved in water”. Further, in data set [3], the T1/2 entry was “approximately 17 hours”.

(Values after patent US20120052099A1, “PHARMACEUTICAL COMPOSITION CONTAINING ARBIDOL IN THE FORM OF PHOSPHOLIPID NANOPARTICLES” (priority 2009, published 2012).)
